Results published in patent US20020128321A1, “IL-8 receptor antagonists” (SmithKline Beecham Corporation, priority 1996, published 2002).

How the values were obtained:
[1] = target: T1, recombinant IL-8 Rb, or Type II, receptor (permissive receptor) (Homo sapiens, UniProt P25025); test: Receptor binding assay, 125I IL-8, permissive (Type II) receptor; conditions: concentration at which active
T1 construct: expressed in transfected cells; host or cells: Chinese hamster ovary cells (membrane preparation)
T1 sequence (P25025 1-360): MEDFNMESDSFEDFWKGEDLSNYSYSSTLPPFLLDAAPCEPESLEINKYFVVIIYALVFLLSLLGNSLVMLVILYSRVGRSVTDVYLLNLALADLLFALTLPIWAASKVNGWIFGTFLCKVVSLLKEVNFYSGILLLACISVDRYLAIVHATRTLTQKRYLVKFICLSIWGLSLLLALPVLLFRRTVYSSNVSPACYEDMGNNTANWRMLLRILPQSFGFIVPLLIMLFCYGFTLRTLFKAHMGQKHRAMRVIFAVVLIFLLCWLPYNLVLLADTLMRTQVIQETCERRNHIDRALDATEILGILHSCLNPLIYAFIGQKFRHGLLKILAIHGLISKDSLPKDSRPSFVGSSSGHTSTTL
Excerpt: [^125I] IL-8 (human recombinant) was obtained from Amersham Corp., Arlington Heights, Ill., with specific activity 2000 Ci/mmol. Gro-a was obtained from NEN-New England Nuclear. All other chemicals were of analytical grade. High levels of recombinant human IL-8 type a and b receptors were individually expressed in Chinese hamster ovary cells as described previously (Holmes, et al., Science, 1991, 253, 1278). The Chinese hamster ovary membranes were homogenized according to a previously described protocol (Haour, et al., J Biol Chem., 249 pp 2195-2205 (1974)). Except that the homogenization buffer was changed to 10 mM Tris-HCL, 1 mM MgS04, 0.5 mM EDTA (ethylene-diaminetetra-acetic acid), 1 m MPMSF (a-toluenesulphonyl fluoride), 0.5 mg/L Leupeptin, pH 7.5. Membrane protein concentration was determined using Pierce Co. micro-assay kit using bovine serum albumin as a standard. All assays were performed in a 96-well micro plate format. Each reaction mixture contained ^125I IL-8 (0.25 nM) or ^125I Gro-a and 0.5 μg/mL of IL-8Ra or 1.0 μg/mL of IL-8Rb membranes in 20 mM Bis-Trispropane and 0.4 mM Tris HCI buffers, pH 8.0, containing 1.2 mM MgSO4, 0.1 mM EDTA, 25 mM NaCl and 0.03% CHAPS. […] The filter was then dried and counted on the Betaplate liquid scintillation counter. […]

Row | Structure (SMILES) | melting point [°C] | found to be active at (IL-8 receptor inhibition) [1]
1 | O=C(Nc1cccc(C(F)(F)F)c1O)Nc1cccc(Cl)c1Cl [Example 203, N-(2-hydroxy-3-trifluoromethylphenyl)-N′-(2,3-dichlorophenyl)urea] | 204.3 to 205.2 | –
2 | O=C(Nc1ccccc1)Nc1ccc(F)cc1O [Example 4, N-(2-hydroxy-4-fluorophenyl)-N′-phenyl urea] | 195.5 to 195.7 | –
3 | O=C(Nc1ccccc1)Nc1ccccc1S [Example 5, 2-{[(phenylamino)carbonyl]amino}thiophenol] | 194.5 | –
4 | O=C(Nc1ccccc1Cl)Nc1cccc(C(F)(F)F)c1O [Example 213, N-(2-hydroxy-3-trifluoromethylphenyl)-N′-(2-chlorophenyl)urea] | 179.3 | –
5 | O=C(Nc1ccc([N+](=O)[O-])cc1O)Nc1ccccc1Sc1ccccc1[N+](=O)[O-] | 204.1 to 205.3 | –
6 | O=C(Nc1ccccc1-c1ccccc1)Nc1cccc(C(F)(F)F)c1O [Example 204, N-(2-hydroxy-3-trifluoromethylphenyl)-N′-(2-phenylphenyl)urea] | 136.7 to 137.3 | –
7 | Cc1cc(Cl)ccc1NC(=O)Nc1ccccc1C(=O)O [1-(2-Carboxyphenyl)-3-(4-chloro-2-methylphenyl)urea] | – | about 75 μg/mL
8 | O=C(Nc1ccc([N+](=O)[O-])cc1O)Nc1ccccc1OCc1cccnc1 [Example 221, N-[2-(3-Pyridylmethoxy)phenyl]-N′-(2-hydroxy-4-nitrophenyl)urea] | 185.4 to 186.2 | –
9 | O=C(Nc1ccc([N+](=O)[O-])cc1O)Nc1ccccc1NS(=O)(=O)c1cccs1 [Example 216, N-[2-(2-thienylsulfonylamino)phenyl]-N′-(2-hydroxy-4-nitrophenyl)urea] | 149 to 149.6 | –
10 | COC(=O)c1ccc(NC(=O)Nc2ccccc2)c(O)c1 [Example 1, N-[2-Hydroxy-4-(methoxycarbonyl)phenyl]-N′-phenyl urea] | 188.4 to 188.8 | –
11 | NC(=O)c1ccc(NC(=O)Nc2ccccc2)c(O)c1 [Example 3, 3-hydroxy-4-{[(phenylamino)carbonyl]amino}benzamide] | 106.8 to 107.1 | –
12 | COc1ccsc1NC(=O)Nc1cc([N+](=O)[O-])ccc1O [Example 11, N-(2-hydroxy-5-nitrophenyl)-N′-(3-methoxy-2-thienyl)urea] | 172.6 to 173 | –
13 | O=C(NCCO)Nc1ccc([N+](=O)[O-])cc1O [Example 214, N-(2-Hydroxyethyl)-N′-(2-hydroxy-4-nitrophenyl)urea] | 168.2 to 168.8 | –

Next, values leading:

Row | melting point [°C] | found to be active at (IL-8 receptor inhibition) [1] | Structure (SMILES)
14 | 188.7 to 189.3 | – | O=C(Nc1ccc([N+](=O)[O-])cc1O)Nc1ccccc1NC(=O)c1ccccc1 [Example 236, N-[2-(Benzoylamino)phenyl]-N′-(2-hydroxy-4-nitrophenyl)urea]
15 | 108.8 to 109.4 | – | N#Cc1ccc(NC(=O)Nc2ccccc2NCc2ccccc2)c(O)c1 [Example 232, N-(2-Hydroxy-4-cyanophenyl)-N′-(2-benzylaminophenyl)urea]
16 | 189.3 to 189.7 | – | O=C(Nc1ccc([N+](=O)[O-])cc1O)Nc1ccccc1OCc1ccncc1 [Example 222, N-[2-(4-Pyridylmethoxy)phenyl]-N′-(2-hydroxy-4-nitrophenyl)urea]
17 | 193.5 to 194 | – | NC(=O)N(c1ccc([N+](=O)[O-])cc1O)c1ccccc1OCc1ccccn1 [Example 233, N′-[2-(2-Pyridylmethoxy)phenyl]-N′-(2-Hydroxy-4-nitrophenyl)urea]
18 | 199.3 to 199.6 | – | COC(=O)Nc1ccccc1NC(=O)Nc1ccc([N+](=O)[O-])cc1O [Example 223, N-[2-(Methoxycarbonylamino)phenyl]-N′-(2-hydroxy-4nitrophenyl)urea]
